Measured values from patent US6410320B1, “Method and compositions for isolation and growth of kidney tubule stem cells, in vitro kidney tubulogenesis and ex vivo construction of renal tubules” (The University of Michigan, priority 1992, dated 2002).

System: renal proximal tubule cells
Test: Phenotypic transformation / lumen formation (tubulogenesis) in a confluent monolayer, by light and electron microscopy
Format: cell-based, rabbit
Conditions: density-arrested confluent monolayer; where present TGF-β1 10 ng/ml, EGF 1 nM, RA 0.1 μM; 144 hours in Example 1
Experimental: Rabbit renal proximal tubule cells were grown in primary culture by techniques reported by Humes et al. in Lab. Invest. 64:538-45 (1991). The cells were grown in 35 mm Corning culture dishes with serum-free, hormonally defined Dulbecco's Modified Eagle Hams F-12 media (1:1, v/v) containing L-glutamine, penicillin, streptomycin, 50 nM hydrocortisone, 5 μg/ml of insulin, and 5 μg/ml of transferrin. The cultures were maintained in a humidified 5% CO2/95% air incubator at 37° C. Medium was changed every 3 to 5 days, depending on nutrient requirements based upon cell number. Cultures became confluent in 9 to 12 days. Once confluent, various agents as described below were added in 20 μl aliquots at various times to promote changes in morphologic phenotype or pattern formation.
Specimens for ultrastructural analysis were fixed with 2% glutaraldehyde in Sorenson's buffer (pH 7.2, 310 mOsm). Postfixation occurred in 1% OsO4 followed by dehydration in ethanol. Specimens were transferred through propylene oxide into monomer mixture (poly/Bed 812A, Araldite, DDSA and DMP-30) and polymerized at 60° C. Thin sections were stained with uranyl acetate and lead citrate, and examined in a Zeiss 9-S2 transmission electron microscope.
Of note, in each aggregation of cells one or two lumen structures were usually observed in random sectioning of tissue culture preparations. […]

Row | Molecule | morphologic phenotype of the monolayer / lumen formation
1 | CC1=C(/C=C/C(C)=C/C=C/C(C)=C/C(=O)O)C(C)(C)CCC1 [RA, all-trans retinoic acid] | no dramatic effect on the appearance of the monolayer
2 | TGF-β1: transforming growth factor-β1 (porcine platelets) from R & D Systems | no lumen formation was observed
